This experiment can be described thus: Binding affinity towards Opioid receptor delta 1 was determined in guinea pig whole brain using [3H][4''-Cl-Phe4]-DPDPE as radioligand.

`CCCC[C@@H](C(=O)N[C@@H](CC(=O)O)C(=O)N[C@@H](Cc1ccccc1)C(N)=O)N(C)C(=O)[C@@H](NC(=O)CNC(=O)[C@@H](Cc1ccccc1)NC(=O)[C@H](Cc1ccc(O)cc1)NC(=O)[C@@H](N)CC(=O)O)[C@@H](C)c1c[nH]c2ccccc12` had an IC50 of 140 nM. `CCCC[C@@H](C(=O)N[C@@H](CC(=O)O)C(=O)N[C@@H](Cc1ccccc1)C(N)=O)N(C)C(=O)[C@H](NC(=O)CNC(=O)[C@@H](Cc1ccccc1)NC(=O)[C@H](Cc1ccc(O)cc1)NC(=O)[C@@H](N)CC(=O)O)[C@@H](C)c1c[nH]c2ccccc12`: the IC50 came out at 1050 nM. On to `CCCC[C@@H](C(=O)N[C@@H](CC(=O)O)C(=O)N[C@@H](Cc1ccccc1)C(N)=O)N(C)C(=O)[C@H](NC(=O)CNC(=O)[C@@H](Cc1ccccc1)NC(=O)[C@H](Cc1ccc(O)cc1)NC(=O)[C@@H](N)CC(=O)O)[C@H](C)c1c[nH]c2ccccc12`, for which the IC50 was determined as 820 nM.

`CCCC[C@@H](C(=O)N[C@@H](CC(=O)O)C(=O)N[C@@H](Cc1ccccc1)C(N)=O)N(C)C(=O)[C@H](Cc1c[nH]c2ccccc12)NC(=O)CNC(=O)[C@@H](Cc1ccccc1)NC(=O)[C@H](Cc1ccc(O)cc1)NC(=O)[C@@H](N)CC(=O)O` [(3S)-3-[(2S)-2-[(2S)-2-{2-[(2R)-2-[(2S)-2-[(3S)-3-amino-3-formamidopropanoic acid]-3-(4-hydroxyphenyl)propanamido]-3-phenylpropanamido]acetamido}-3-(1H-indol-3-yl)-N-methylpropanamido]hexanamido]-3-{[(1S)-1-carbamoyl-2-phenylethyl]carbamoyl}propanoic acid] returned an IC50 of 29 nM.

The values are drawn from BindingDB's records for doi:10.1021/jm960078j (University of Arizona, 1996).
